In ChEMBL document CHEMBL3608289, “Miltirone Is a Dual Inhibitor of P-Glycoprotein and Cell Growth in Doxorubicin-Resistant HepG2 Cells” (J Nat Prod, 2015):
The source made the active and inactive calls. The rule behind the calls is not given here.

Experiments:
[1] = target: T1, MAP kinase p38 (Homo sapiens) (UniProt O15264+Q15759+Q16539+P53778); test: Inhibition of p38 MAPK phosphorylation in human doxorubicin-resistant HepG2 cells expressing p-gp at 1.56 to 25 uM by Western blot analysis; assay type: cell-based
[2] = tested on: HepG2; test: Induction of ROS generation in human HepG2 cells after 15 to 30 mins using CM-H2DCFDA by flow cytometry; assay type: functional, cell-based
[3] = tested on: HepG2; test: Induction of necrosis in human HepG2 cells assessed as LDH leakage at 25 uM after 24 hrs; assay type: functional, cell-based
[4] = tested on: HepG2; test: Cytotoxicity against human HepG2 cells after 24 hrs by MTT assay in presence of doxorubicin; assay type: functional, cell-based; conditions: HepG2, 24 h
[5] = target: T1, MAP kinase p38 (Homo sapiens); test: Inhibition of p38 MAPK phosphorylation in human HepG2 cells at 1.56 to 25 uM by Western blot analysis in presence of SB203580; assay type: cell-based
[6] = tested on: HepG2; test: Induction of apoptosis in human HepG2 cells assessed as activation of caspase-3/8/9 at 12.5 after 24 hrs by Western blotting in presence of Z-LEHD-FMK; assay type: functional, cell-based
[7] = tested on: HepG2; test: Increase of SAPK/JNK phosphorylation in human HepG2 cells at 1.56 to 25 uM by Western blot analysis; assay type: cell-based
[8] = tested on: HepG2; test: Induction of apoptosis in human doxorubicin-resistant HepG2 cells expressing p-gp assessed as activation of caspase-3/8/9 at 12.5 after 24 hrs by Western blotting in presence of trolox; assay type: functional, cell-based
[9] = tested on: HepG2; test: Competitive inhibition of p-glycoprotein in human doxorubicin-resistant HepG2 cells assessed as reduction of doxorubicin efflux after 1 hr by primary Dixon plot analysis; assay type: cell-based
[10] = tested on: HepG2; test: Induction of ROS generation in human doxorubicin-resistant HepG2 cells expressing p-gp at 25 uM after 15 mins using H2DCFH dye by confocal microscopy; assay type: functional, cell-based
[11] = tested on: HepG2; test: Increase of SAPK/JNK phosphorylation in human HepG2 cells at 1.56 to 25 uM by Western blot analysis in presence of SB203580; assay type: cell-based
[12] = tested on: HepG2; test: Induction of apoptosis in human doxorubicin-resistant HepG2 cells expressing p-gp assessed as activation of caspase-3/8/9 at 12.5 after 24 hrs by Western blotting in presence of Z-IETD-FMK; assay type: functional, cell-based
[13] = tested on: HepG2; test: Induction of oxidative stress in human doxorubicin-resistant HepG2 cells expressing p-gp assessed as decrease of GSH level per gram of protein at 1.56 to 3.12 uM after 24 hrs using DTNB by enzymatic kinetic method relative to control; assay type: functional, cell-based
[14] = Cytotoxicity against human PLC/PRF/5 cells after 24 hrs by MTT assay; assay type: functional, cell-based; conditions: PLC-PRF-5, 24 h
[15] = target: Mitogen-activated protein kinase; ERK1/ERK2 (Homo sapiens) (UniProt P27361+P28482); test: Inhibition of ERK1/2 phosphorylation in human doxorubicin-resistant HepG2 cells expressing p-gp at 1.56 to 25 uM by Western blot analysis in presence of NAC; assay type: cell-based
[16] = tested on: HepG2; test: Induction of oxidative stress in human doxorubicin-resistant HepG2 cells expressing p-gp assessed as decrease of GSSG level per gram of protein at 25 uM after 24 hrs using DTNB by enzymatic kinetic method relative to control; assay type: functional, cell-based
[17] = tested on: HepG2; test: Increase of SAPK/JNK phosphorylation in human doxorubicin-resistant HepG2 cells expressing p-gp at 1.56 to 25 uM by Western blot analysis in presence of SB203580; assay type: cell-based
[18] = tested on: HepG2; test: Increase of SAPK/JNK phosphorylation in human HepG2 cells at 1.56 to 25 uM by Western blot analysis in presence of NAC; assay type: cell-based
[19] = tested on: HepG2; test: Induction of apoptosis in human HepG2 cells assessed as activation of caspase-3/8/9 at 12.5 after 24 hrs by Western blotting in presence of Z-VAD-FMK; assay type: functional, cell-based
[20] = tested on: HepG2; test: Effect on nonphosphorylated ERK1/ERK2 level in human HepG2 cells at 25 uM by Western blot analysis; assay type: ADME, cell-based; conditions: hepg2, 25 µM
[21] = tested on: HepG2; test: Induction of oxidative stress in human HepG2 cells assessed as decrease of GSSG level per gram of protein at 25 uM after 24 hrs using DTNB by enzymatic kinetic method relative to control; assay type: functional
[22] = tested on: HepG2; test: Induction of ROS generation in human HepG2 cells at 25 uM after 15 to 30 mins using H2DCFH dye by confocal microscopy in presence of PEG-catalase; assay type: functional, cell-based
[23] = tested on: HepG2; test: Competitive inhibition of p-glycoprotein in doxorubicin-resistant human HepG2 cells assessed as reduction of doxorubicin efflux after 1 hr by primary Lineweaver-Burk plot analysis; assay type: cell-based
[24] = tested on: HepG2; test: Induction of oxidative stress in human doxorubicin-resistant HepG2 cells expressing p-gp assessed as increase of GSH/GSSG ratio at 1.56 to 3.12 uM after 24 hrs using DTNB by enzymatic kinetic method; assay type: functional, cell-based
[25] = tested on: HepG2; test: Cytotoxicity against human doxorubicin-resistant HepG2 cells expressing p-gp after 24 hrs by MTT assay; assay type: functional, cell-based; conditions: HepG2, 24 h
[26] = target: ATP-dependent translocase ABCB1 (Homo sapiens, UniProt P08183); test: Inhibition of p-glycoprotein in human doxorubicin-resistant HepG2 cells assessed as reduction of doxorubicin efflux after 1 hr by flow cytometry; assay type: cell-based; conditions: hepg2, 1 h
[27] = tested on: HepG2; test: Induction of ROS generation in human HepG2 cells at 25 uM after 15 to 30 mins using H2DCFH dye by confocal microscopy; assay type: functional, cell-based
[28] = tested on: HepG2; test: Induction of oxidative stress in human HepG2 cells assessed as decrease of GSH level per gram of protein at 25 uM after 24 hrs using DTNB by enzymatic kinetic method relative to control; assay type: functional
[29] = target: T1, MAP kinase p38 (Homo sapiens); test: Inhibition of p38 MAPK phosphorylation in human doxorubicin-resistant HepG2 cells expressing p-gp at 1.56 to 25 uM by Western blot analysis in presence of NAC; assay type: cell-based
[30] = tested on: HepG2; test: Induction of necrosis in human doxorubicin-resistant HepG2 cells expressing p-gp assessed as LDH leakage at >50 uM after 24 hrs; assay type: functional, cell-based
[31] = tested on: HepG2; test: Induction of apoptosis in human doxorubicin-resistant HepG2 cells expressing p-gp assessed as activation of caspase-3/8/9 after 24 hrs by Western blotting; assay type: functional, cell-based

Chain of Mitogen-activated protein kinase; ERK1/ERK2 (Homo sapiens) (P27361 whole entry, looked up): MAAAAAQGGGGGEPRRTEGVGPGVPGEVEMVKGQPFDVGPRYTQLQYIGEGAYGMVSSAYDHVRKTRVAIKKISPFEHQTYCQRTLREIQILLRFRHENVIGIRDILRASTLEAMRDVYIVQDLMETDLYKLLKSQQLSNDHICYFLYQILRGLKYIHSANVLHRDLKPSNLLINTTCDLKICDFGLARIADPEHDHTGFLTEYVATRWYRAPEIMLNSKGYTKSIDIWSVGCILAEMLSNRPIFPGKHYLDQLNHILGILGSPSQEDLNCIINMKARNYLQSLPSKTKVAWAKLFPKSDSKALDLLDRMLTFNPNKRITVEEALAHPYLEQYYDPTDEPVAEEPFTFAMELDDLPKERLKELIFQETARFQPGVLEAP
Chain of Mitogen-activated protein kinase; ERK1/ERK2 (Homo sapiens) (P28482 whole entry, looked up): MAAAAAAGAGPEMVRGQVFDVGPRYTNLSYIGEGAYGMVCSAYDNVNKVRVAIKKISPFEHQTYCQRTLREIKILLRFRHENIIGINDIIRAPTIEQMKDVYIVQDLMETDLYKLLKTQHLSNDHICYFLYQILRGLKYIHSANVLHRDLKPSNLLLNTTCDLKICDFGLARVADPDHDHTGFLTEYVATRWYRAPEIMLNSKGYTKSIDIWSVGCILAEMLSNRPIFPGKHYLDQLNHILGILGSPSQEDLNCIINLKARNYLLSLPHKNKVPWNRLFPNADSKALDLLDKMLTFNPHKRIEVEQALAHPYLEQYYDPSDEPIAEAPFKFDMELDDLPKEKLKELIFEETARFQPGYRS
Chain of ATP-dependent translocase ABCB1 (P08183 whole entry): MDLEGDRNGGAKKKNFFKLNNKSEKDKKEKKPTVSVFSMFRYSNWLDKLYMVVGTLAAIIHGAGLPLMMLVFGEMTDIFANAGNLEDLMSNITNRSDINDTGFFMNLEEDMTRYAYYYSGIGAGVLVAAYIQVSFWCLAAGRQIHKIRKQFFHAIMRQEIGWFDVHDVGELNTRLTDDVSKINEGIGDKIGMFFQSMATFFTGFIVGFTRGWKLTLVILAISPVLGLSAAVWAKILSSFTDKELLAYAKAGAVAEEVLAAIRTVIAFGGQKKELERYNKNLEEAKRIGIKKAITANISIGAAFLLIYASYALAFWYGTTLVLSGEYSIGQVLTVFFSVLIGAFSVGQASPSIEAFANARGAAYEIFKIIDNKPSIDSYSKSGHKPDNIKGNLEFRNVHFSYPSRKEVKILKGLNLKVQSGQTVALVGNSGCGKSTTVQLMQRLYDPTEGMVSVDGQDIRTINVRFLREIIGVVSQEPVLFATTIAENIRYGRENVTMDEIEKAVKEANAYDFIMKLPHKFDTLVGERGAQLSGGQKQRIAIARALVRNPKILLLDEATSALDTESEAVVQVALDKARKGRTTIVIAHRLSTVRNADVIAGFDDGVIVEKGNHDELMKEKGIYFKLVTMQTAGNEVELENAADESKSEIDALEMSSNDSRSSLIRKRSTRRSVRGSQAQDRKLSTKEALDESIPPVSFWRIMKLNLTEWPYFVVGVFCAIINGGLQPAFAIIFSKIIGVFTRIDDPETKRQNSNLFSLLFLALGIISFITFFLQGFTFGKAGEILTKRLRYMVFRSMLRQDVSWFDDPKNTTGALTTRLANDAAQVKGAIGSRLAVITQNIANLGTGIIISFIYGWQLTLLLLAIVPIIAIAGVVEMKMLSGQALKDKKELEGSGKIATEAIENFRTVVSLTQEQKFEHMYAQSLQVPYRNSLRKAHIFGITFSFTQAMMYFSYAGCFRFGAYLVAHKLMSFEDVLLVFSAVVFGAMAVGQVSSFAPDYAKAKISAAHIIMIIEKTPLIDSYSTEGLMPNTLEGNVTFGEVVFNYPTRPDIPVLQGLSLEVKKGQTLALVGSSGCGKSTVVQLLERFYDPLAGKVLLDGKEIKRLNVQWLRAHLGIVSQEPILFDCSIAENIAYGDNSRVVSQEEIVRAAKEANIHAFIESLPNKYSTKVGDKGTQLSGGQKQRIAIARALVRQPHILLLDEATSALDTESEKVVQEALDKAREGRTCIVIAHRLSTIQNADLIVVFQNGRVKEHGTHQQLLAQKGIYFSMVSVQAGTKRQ

For CC(C)C1=Cc2ccc3c(c2C(=O)C1=O)CCCC3(C)C [MILTIRONE], the inhibition [1] was “Active”, the Activity [2] was “Dose-dependent effect” and the Activity [3] was “inactive”. The EC50 [4] was 30.9 µM, the inhibition [5] was “inactive” and the Activity [6] was “inactive”. For the same molecule, the Activity [7] was “Active”, the Activity [8] was “inactive” and the inhibition [9] was “Active”. The Activity [10] was “Active”, the Activity [11] was “inactive” and the Activity [12] was “inactive”. For the same molecule, the Activity [13] was “inactive”, the EC50 [14] was 27.1 µM and the inhibition [15] was “inactive”. The Activity [16] was “inactive”, the Activity [17] was “Active” and the inhibition [18] was “inactive”. For the same molecule, the Activity [19] was “inactive”, the Activity [20] was “Non-toxic” and the Activity [21] was 3.5 µmol. For the same molecule, the Activity [22] was “inactive”, the inhibition [23] was “Active” and the Activity [24] was “inactive”. For the same molecule, the EC50 [25] was 12 µM, the “inhibition (INH)” value [26] was “Active” and the Activity [27] was “Active”. The Activity [28] was 2.4 µmol, the inhibition [29] was “inactive” and the Activity [30] was “Active”. For the same molecule, the Activity [31] was “Active”.
